From patent US12590950B2, “Methods for predicting ER-mediated DNA damage” (UNIVERSITY OF MASSACHUSETTS, priority 2019, dated 2026)

How the values were obtained:
[1] = test system: ER; details: compared to BP3; cited from earlier work
[2] = test system: TFF1; test: RT-qPCR of estrogen-responsive gene TFF1 in T47D cells; format: cell-based, human; details: fulvestrant 1 μM with 10 nM E2, T47D
Procedure: RT-qPCR: RNA from T47D cells, MCF-7 Cells or flash-frozen 4th mammary gland was isolated with TRIzol (Thermofisher Scientific #15596018) and Direct-zol RNA MiniPrep Plus (Zymo Research #R2072). cDNA was prepared with Protoscript II First Strand cDNA Synthesis Kit (New England Biolabs #E6560S) and qPCR for TFF1, progesterone receptor (PGR) and Amphiregulin (AREG) was performed on CFX96 Real-Time System thermocycler (Bio-Rad) using primers in Table 1.

[3] = test system: T47D cells; test: γH2AX immunostaining (DNA damage) in T47D cells; format: cell-based, human
Procedure: Immunostaining: Cells were grown in clearing media for 48 h and plated on 20 mm coverslip in 12 well plates with a density of 2×10^5 cells/well. […] Cells were washed with 1×PBS, blocked in 2% BSA/PBS with 0.1% Triton-X 100 for 1 hr at room temperature (RT), incubated overnight with γH2AX antibody (Cell Signaling #9718 S) or ERα antibody (Santa Cruz Biotechnology #sc-8002) at 4° C. and 1 hour with secondary antibody. S9.6: Cells were fixed in ice-cold 100% methanol for 10 min at −20° C., permeabilized in 100% acetone for 1 min at RT, blocked for 30 min in saline sodium citrate pH 7 (SSC, 4×), 3% BSA, 0.1% Triton-X and incubated with S9.6 (Kerafast #ENH001) 2 hr at RT followed by 1 h with secondary antibody. If indicated, slides were treated with RNase H (NEB #M0297L) for 4 hr at 37° C. prior to incubation with primary antibody. Stained cells were mounted with Vectashield mounting medium containing DAPI (Vector Laboratories #H-1200). Slides were imaged at 60× (immersion oil) with Nikon A1 Spectral Confocal microscope. Analysis of γH2AX and S9.6 intensity per nucleus or foci per nucleus was calculated using Nikon analysis software, where DAPI was used as a mask for the nucleus.

Structure (SMILES) | ER transactivation potential [1] | effect on transcriptional responses (TFF1) to E2 [2] | effect on E2-induced γH2AX intensity ([3]; fulvestrant 1 μM with 10 nM E2, T47D) | effect on γH2AX intensity in response to 5 μM BP3 and 5 μM PP ([3]; fulvestrant 1 μM, T47D)
O=C(c1ccccc1)c1ccc(O)cc1O [2,4-diOH-BP] | higher ER transactivation potential compared to BP3 |  |  | 
C[C@]12CC[C@@H]3c4ccc(O)cc4C[C@@H](CCCCCCCCC[S+]([O-])CCCC(F)(F)C(F)(F)F)[C@H]3[C@@H]1CC[C@@H]2O (stereo partly shown) [fulvestrant] |  | blocked | significantly reduced | inhibited
